Data taken from US6444617B1, “Fused-heterocycle dicarboxylic acid diamide derivatives or salts thereof, herbicide and usage thereof” (Nihon Nohyaku Co., Ltd., priority 1998, dated 2002).

Assays:
Assay type in all cases: in vivo
[1] = tested on: barnyard grass (Echinochloa crus-galli Beauv.); assay: Test Example 1: herbicidal effect on paddy field weeds before emergence; conditions: Dosage 5 kg/ha
Description: (§1) Test for Herbicidal Effect on Paddy Field Weeds Before Emergence Soil was filled into 1/10000 are pots and brought into a state of paddy field, in which seeds of barnyard grass (Echinochloa crus-galli Beauv.) and bulrush (Scirpus juncoides Roxb.) were made to be before germination. The soil in the pots were treated with a solution containing a predetermined dosage of a chemical agent comprising a compound of the present invention listed in Tables 1 to 14. Twenty one days after the treatment, the herbicidal effect was investigated, the result was compared with that in untreated plot to calculate the weed-controlling rate, and the herbicidal effect was judged according to the following criterion: […]

[2] = tested on: bulrush (Scirpus juncoides Roxb.); assay: as above; conditions: Dosage 5 kg/ha
Description: as §1

[3] = tested on: barnyard grass (Echinochloa crus-galli Beauv.); assay: Test Example 2: herbicidal effect on paddy field weeds after emergence; conditions: Dosage 5 kg/ha; one-leaved stage; 21 days after treatment
Description: (§2) Test for Herbicidal Effect on Paddy Field Weeds After Emergence. Soil was filled into 1/10000 are pots and brought into a state of paddy field, in which seeds of barnyard grass (Echinochloa crus-galli Beauv.), bulrush (Scirpus juncoides Roxb.) and monochoria (Monochoria vaginalis Presl) were made to reach one-leaved stage. The soil in the pots were treated with a solution containing a predetermined dosage of a chemical agent comprising a compound of the present invention listed in Tables 1 to 14. Twenty one days after the treatment, the herbicidal effect was investigated and the result was compared with that in untreated plot to calculate the weed-controlling rate, and the herbicidal effect was judged according to the same criterion as in Test Example 1.

[4] = tested on: bulrush (Scirpus juncoides Roxb.); assay: as above; conditions: Dosage 5 kg/ha; one-leaved stage; 21 days after treatment
Description: as §2

[5] = tested on: monochoria (Monochoria vaginalis Presl); assay: as above; conditions: Dosage 5 kg/ha; one-leaved stage; 21 days after treatment
Description: as §2

[6] = tested on: barnyard grass (Echinochloa crus-galli Beauv.), Ec; assay: Test Example 3: herbicidal effect on upland weeds before emergence; conditions: dosage 5 kg/ha
Description: (§3) Herbicidal Effect on Upland Weeds Before Emergence […] Then, a liquid preparation of an agent comprising a prescribed concentration of a compound of the present invention (the compounds listed in Tables 1-14) as active ingredient was sprayed. Fourteen days after the treatment, the herbicidal effect was investigated, from which weed-killing rate was calculated in the same manner as in Test Example 1, and the herbicidal effect was judged.

[7] = tested on: bird's eye speedwell (Veronica persica Poir.), Vp; assay: as above; conditions: dosage 5 kg/ha
Description: as §3

[8] = tested on: cleavers (Galium aparine L.), Ga; assay: as above; conditions: dosage 5 kg/ha
Description: as §3

[9] = tested on: cocklebur (Xanthium strumarium L.), Xs; assay: as above; conditions: dosage 5 kg/ha
Description: as §3

[10] = tested on: forxtail grass (Alopecurus aequalis var. amurensis Ohwi), Am; assay: as above; conditions: foxtail grass, dosage 5 kg/ha
Description: as §3

[11] = tested on: velvetleaf (Abutilon theophtasti L.), At; assay: as above; conditions: dosage 5 kg/ha
Description: as §3

soybean plant (So) = assay: Test Example 3: phytotoxicity to upland crop plants, treatment before emergence; conditions: dosage 5 kg/ha
Description: as §3, with “judged. At the same time, phytotoxicity to soybean plant and wheat was investigated and judged according to the criterion mentioned below.” for “judged.”

wheat (Wh) = assay: as above; conditions: dosage 5 kg/ha
Description: as §3, with “judged. At the same time, phytotoxicity to soybean plant and wheat was investigated and judged according to the criterion mentioned below.” for “judged.”

[12] = tested on: barnyard grass (Echinochloa crus-galli Beauv.), Ec; assay: Test Example 4: herbicidal effect on upland weeds after emergence; conditions: dosage 5 kg/ha; sprayed after emergence; judged 14 days after treatment
Text: (§4) Herbicidal Effect on Upland Weeds After Emergence Polyethylene-made vats having a size of 10 cm (length)×20 cm (width)×5 cm (height) were filled with soil, sown with seeds of the following noxious upland weeds and with seeds of soybean plant and wheat as upland crop plants, and then covered with soil. The plants were made to grow up until they reached the leaf-stages mentioned below, after which an agent comprising a prescribed concentration of a compound of the present invention (listed in Tables 1 to 14) as active ingredient was sprayed. Fourteen days after the treatment, the herbicidal effect was investigated, from which weed-killing rate was calculated in the same manner as in Test Example 1 and the results were judged. […] Sample weeds, their leaf stages, and leaf stages of soybean plant and wheat were as follows: [table]

[13] = tested on: bird's eye speedwell (Veronica persica Poir.), Vp; assay: as above; conditions: dosage 5 kg/ha; sprayed after emergence; judged 14 days after treatment
Text: as §4

[14] = tested on: cleavers (Galium aparine L.), Ga; assay: as above; conditions: dosage 5 kg/ha; sprayed after emergence; judged 14 days after treatment
Text: as §4

[15] = tested on: cocklebur (Xanthium strumarium L.), Xs; assay: as above; conditions: dosage 5 kg/ha; sprayed after emergence; judged 14 days after treatment
Text: as §4

[16] = tested on: forxtail grass (Alopecurus aequalis var. amurensis Ohwi), Am; assay: as above; conditions: dosage 5 kg/ha; sprayed after emergence; judged 14 days after treatment
Text: as §4

[17] = tested on: velvetleaf (Abutilon theophtasti L.), At; assay: as above; conditions: dosage 5 kg/ha; sprayed after emergence; judged 14 days after treatment
Text: as §4

soybean plant = assay: Test Example 4: phytotoxicity to upland crop plants, treatment after emergence; conditions: dosage 5 kg/ha, sprayed after emergence, judged 14 days after treatment
Text: as §4

wheat = assay: as above; conditions: dosage 5 kg/ha, sprayed after emergence, judged 14 days after treatment
Text: as §4

| Compound | Pre-emergence treatment Barnyard grass (herbicidal effect) [1] | Pre-emergence treatment Bulrush (herbicidal effect) [2] | Post-emergence treatment Barnyard grass (herbicidal effect) [3] | Post-emergence treatment Bulrush (herbicidal effect) [4] | Post-emergence treatment Monochoria (herbicidal effect) [5] | Herbicidal effect Ec [6] | Herbicidal effect Vp [7] | Herbicidal effect Ga [8] | Herbicidal effect Xs [9] | Herbicidal effect Am [10] | Herbicidal effect At [11] | Phytotoxicity So (soybean plant (So)) | Phytotoxicity Wh (wheat (Wh)) | Herbicidal effect Ec [12] | Herbicidal effect Vp [13] | Herbicidal effect Ga [14] | Herbicidal effect Xs [15] | Herbicidal effect Am [16] | Herbicidal effect At [17] | Phytotoxicity So (soybean plant) | other results |
| --- | --- | --- | --- | --- | --- | --- | --- | --- | --- | --- | --- | --- | --- | --- | --- | --- | --- | --- | --- | --- | --- |
| CCc1ccc(Cl)c(CC)c1NC(=O)c1cc2ccccc2nc1C(=O)NC1CCCC1 [359-6] | 5 (Weed-killing rate is 100%.) | 5 (Weed-killing rate is 100%.) | 5 (Weed-killing rate is 100%.) | 5 (Weed-killing rate is 100%.) | 5 (Weed-killing rate is 100%.) | 5 (Weed-killing rate is 100%.) | 5 (Weed-killing rate is 100%.) | 5 (Weed-killing rate is 100%.) | 5 (Weed-killing rate is 100%.) | 5 (Weed-killing rate is 100%.) | 5 (Weed-killing rate is 100%.) | 0 (Crop-killing rate is 0-20% (No Phytotoxicity).) | 0 (Crop-killing rate is 0-20% (No Phytotoxicity).) | 5 (Weed-killing rate is 100%.) | 5 (Weed-killing rate is 100%.) | 5 (Weed-killing rate is 100%.) | 5 (Weed-killing rate is 100%.) | 5 (Weed-killing rate is 100%.) | 5 (Weed-killing rate is 100%.) | 3 (Crop-killing rate is 70-89%.) | Phytotoxicity Wh (wheat): 2 (Crop-killing rate is 40-69%.) |
| CCCNC(=O)c1nc2cc(F)ccc2cc1C(=O)Nc1c(CC)ccc(Cl)c1CC [Compound No. 158, 3-(3-Chloro-2,6-diethylphenyl)-aminocarbonyl-7-fluoro-2-quinolinecarboxylic Acid n-Propylamide] | 5 (Weed-killing rate is 100%.) | 5 (Weed-killing rate is 100%.) | 5 (Weed-killing rate is 100%.) | 5 (Weed-killing rate is 100%.) | 5 (Weed-killing rate is 100%.) | 5 (Weed-killing rate is 100%.) | 5 (Weed-killing rate is 100%.) | 5 (Weed-killing rate is 100%.) | 4 (Weed-killing rate is 90-99%.) | 4 (Weed-killing rate is 90-99%.) | 5 (Weed-killing rate is 100%.) | 1 (Crop-killing rate is 1-39%.) | 4 (Crop-killing rate is 90-99%.) | 5 (Weed-killing rate is 100%.) | 5 (Weed-killing rate is 100%.) | 5 (Weed-killing rate is 100%.) | 4 (Weed-killing rate is 90-99%.) | 4 (Weed-killing rate is 90-99%.) | 5 (Weed-killing rate is 100%.) | 2 (Crop-killing rate is 40-69%.) | Phytotoxicity Wh (wheat): 4 (Crop-killing rate is 90-99%.) |
